From patent publication US20220347267A1, “METHODS TO IMPROVE PATIENT RESPONSE TO IMMUNE CHECKPOINT INHIBITORS AND FUNCTIONAL TESTS TO PREDICT RESPONSE” (Biomarker Strategies, LLC, priority 2019, published 2022)

Columns and labels:
Type in all cases: cell-based, human
[1] = test system: various NSCLC, HNSCC, breast cancer, melanoma, colorectal cancer, and pancreatic cancer cell lines; test: PD-L1 western blot after modulators, summary over all samples; conditions: depending on the sample, summary of Table 3
From the text: (§1) Cell lines were acquired from ATCC, Sigma, or DSMZ. Human non-small cell lung carcinoma (NSCLC) cell lines H292 (ATCC no. CRL-1848.), H1299 (ATCC no. CRL-5803), H520 (ATCC no. CRL-5811), CALU6 (ATCC no. HTB-56), H1975 (ATCC no. CRL-5908), H460 (ATCC no. HTB-177), H2126 (ATCC no. CCL-256), H1650 (ATCC no. CRL-5883), and H2087 (ATCC no. CRL-5922) were used for this experiment along with head and neck squamous cell carcinoma (HNSCC) cell lines BHY (DSMZ ACC 404), CAL27 (ATCC no. CRL-2095), KYSE410 (Sigma), and A253 (ATCC no. HTB-41), melanoma cell lines A375 (ATCC no. CRL-1619), COL0853 (Sigma), and MM127 (Sigma) pancreatic cancer cell lines BXPC3 (ATCC no. CRL-1687), colorectal cancer cell lines […], HCT116 (ATCC no. CCL-247EMT), and breast cancer cell lines BT549 (ATCC no. HTB-122), BT20 (ATCC no. HTB-19), and T47D (ATCC no. HTB-133). Cells were maintained in manufacturer-recommended conditions at 37° C. inside humidified 5% CO2 incubators. Sub-cultivation and harvesting for all cell lines were performed using Accutase (GIBCO Life Technologies; cat. no. A1110501) at 37° C. for 10 minutes. Cell viability was measured using trypan blue exclusion staining in conjunction with the Countess II Automated Cell Counter (Thermo Fischer Scientific; cat. no. AMQAX1000). Measurements were made in duplicate and the average number of viable cells was recorded prior to experiments.
(§2) T7039), and IL-10 (50 ng/ml; Sigma Aldrich cat. no. SRP3071) were administered to cell lines for various times including 30 minutes, 3 hour, and 24 hour time intervals prior to cell lysis and protein extraction.
(§3) To determine the effects of the aforementioned molecules on the modulation of PD-L1, we selected various NSCLC, HNSCC, breast cancer, melanoma, colorectal cancer, and pancreatic cancer cell lines as examples. Other diseases or cell lines could be used readily as could more complex samples such as cells isolated from xenografts and clinical samples. Cells were plated, for three different time points (30 minutes, 3 hours, and 24 hours), inside 6-well petri dishes with 2 mL of appropriate medium. Plates were incubated for 24 hours in 5% CO2 incubators at 37° C. After 24 hours, each 6-well plate was washed with PBS (Gibco Life Technologies, cat. no. 10010023) followed by fresh media being added along with each cell line's vehicle control or appropriate modulator for each specific time point, and were placed in CO2 incubators until their modulation time point was reached. Other conditions can be readily used, such as processing on automated systems such as SnapPath. At the end of each time point, while keeping plates on ice, cell lysis was conducted by aspirating culture medium from each plate, washing of each plate three times with 5 ml of cold PBS (Gibco Life Technologies, cat. no. 10010023) and culminated with the addition of cold 1× lysis buffer containing (Cell Signaling, cat. no. 9803 S) protease inhibitor cocktail (Cell Signaling, cat. no. 5871S), phosphatase inhibitor cocktail (Cell Signaling, cat. no. 5870S), and PMSF (Fisher Scientific, cat. no. ICN19538101). Plates were then placed on ice for ten minutes, swirling each plate intermittently. Aliquots of protein lysates were prepared and then stored at −80° C. until protein quantification and Western blot analysis was to be conducted. The protein concentration of each lysate was analyzed by using the Pierce 660 Protein Assay Reagent (Thermo Fisher Scientific, cat. no. 22660) and testing of each sample was conducted in duplicate. Two μg of protein was then loaded per lane into 10% Midi-PROTEAN TGX Precast Gels (Bio Rad, cat. no. 5671034) along with Kaleidoscope Prestained Protein Standard (BioRad, cat. no. 1610375) which ran at 220V for 45 minutes. Proteins were transferred to mini-PVDF membranes (BioRad, cat. no. 1704156) in 3 minutes using the Trans-Blot Turbo Transfer System (BioRad, cat. no. 1704150EDU).

[2] = test system: H2087 cells; test: PD-L1 western blot after modulators (EM and MTAs); conditions: NSCLC H2087, 30 minutes, 3 hours, 24 hours
From the text: as §1
(§4) Enhancer Molecule and Therapies: IFNγ, (10 ng/ml; Sigma Aldrich, cat.no 11040596001), TNFα (10 ng/ml; BD Biosciences cat. no. 554618), Osimertinib (100 ng/ml; Selleckchem cat.no. S7297), Everolimus (100 ng/ml; Selleckchem cat.no S1120), GSK458 (10 ng/ml; Selleckchem cat. no. S2658), TNFb (50 ng/ml; Sigma Aldrich cat. no.), GSK795 (1,000 ng/ml; Selleckchem cat. no. S7492), IL-12 (50 ng/ml; Sigma Aldrich SRP3073), GM-CSF (50 ng/ml; Sigma Aldrich cat. no. G5035), IL-1a (1 ng/ml; Sigma Aldrich cat. no. 12778-), IL-6 (50 ng/ml; Sigma Aldrich), IL-17 (100 ng/ml; Sigma Aldrich cat. no. SRP3080), TGFb (1 ng/ml; Sigma Aldrich cat. no. T7039), and IL-10 (50 ng/ml; Sigma Aldrich cat. no. SRP3071) were administered to cell lines for various times including 30 minutes, 3 hour, and 24 hour time intervals prior to cell lysis and protein extraction.
as §3, with “The protein concentration of each lysate was analyzed by using the Pierce 660 Protein Assay Reagent (Thermo Fisher Scientific, cat. no. 22660) and testing of each sample was conducted in duplicate. Two μg of protein was then loaded per lane into 10% Midi-PROTEAN TGX Precast Gels (Bio Rad, cat. no. 5671034) along with Kaleidoscope Prestained Protein Standard (BioRad, cat. no. 1610375) which ran at 220V for 45 minutes. Proteins were transferred to mini-PVDF membranes (BioRad, cat. no. 1704156) in 3 minutes using the Trans-Blot Turbo Transfer System (BioRad, cat. no. 1704150EDU).” left out

[3] = test system: BT20 cells; test: PD-L1 western blot after modulators (EM and MTAs); conditions: Breast BT20, 30 minutes, 3 hours, 24 hours
From the text: as §1, §4
as §3, with “The protein concentration of each lysate was analyzed by using the Pierce 660 Protein Assay Reagent (Thermo Fisher Scientific, cat. no. 22660) and testing of each sample was conducted in duplicate. Two μg of protein was then loaded per lane into 10% Midi-PROTEAN TGX Precast Gels (Bio Rad, cat. no. 5671034) along with Kaleidoscope Prestained Protein Standard (BioRad, cat. no. 1610375) which ran at 220V for 45 minutes. Proteins were transferred to mini-PVDF membranes (BioRad, cat. no. 1704156) in 3 minutes using the Trans-Blot Turbo Transfer System (BioRad, cat. no. 1704150EDU).” left out

[4] = test system: BxPC3 cells; test: PD-L1 western blot after modulators (EM and MTAs); conditions: Pancreatic BxPC3, 30 minutes, 3 hours, 24 hours
From the text: as §1, §4
as §3, with “The protein concentration of each lysate was analyzed by using the Pierce 660 Protein Assay Reagent (Thermo Fisher Scientific, cat. no. 22660) and testing of each sample was conducted in duplicate. Two μg of protein was then loaded per lane into 10% Midi-PROTEAN TGX Precast Gels (Bio Rad, cat. no. 5671034) along with Kaleidoscope Prestained Protein Standard (BioRad, cat. no. 1610375) which ran at 220V for 45 minutes. Proteins were transferred to mini-PVDF membranes (BioRad, cat. no. 1704156) in 3 minutes using the Trans-Blot Turbo Transfer System (BioRad, cat. no. 1704150EDU).” left out

[5] = test system: H292 cells; test: PD-L1 western blot after modulators (EM and MTAs); conditions: NSCLC H292, 30 minutes, 3 hours, 24 hours
From the text: as §1, §2, §3

Row | Compound | regulation of PD-L1 across samples [1] | PD-L1 Response [2] | PD-L1 Response [3] | PD-L1 Response [4] | PD-L1 Response [5]
1 | GM-CSF: enhancer molecule, 50 ng/ml; Sigma Aldrich | only led to upregulation | Up | – | – | –
2 | COc1ncc(-c2ccc3nccc(-c4ccnnc4)c3c2)cc1NS(=O)(=O)c1ccc(F)cc1F [GSK458, reference compound] | both up and down regulation | – | Up | Up | Down
3 | CO[C@H]1C[C@@H]2CC[C@@H](C)[C@@](O)(O2)C(=O)C(=O)N2CCCC[C@H]2C(=O)O[C@H]([C@H](C)C[C@@H]2CC[C@@H](OCCO)[C@H](OC)C2)CC(=O)[C@H](C)/C=C(\C)[C@@H](O)[C@@H](OC)C(=O)[C@H](C)C[C@H](C)/C=C/C=C/C=C/1C [everolimus, Everolimus] | both up and down regulation | – | – | Up | Down
4 | TGFb: enhancer molecule, 1 ng/ml; Sigma Aldrich | only led to upregulation | – | – | – | –
